EPA's ToxRefDB 2

Tests used:
rat [1] = conditions: Prenatal developmental toxicity study; sprague dawley; Oral; Gavage/Intubation; dose end: 15 GD; group: maternal; reproductive / reproductive performance / postimplantation loss / postimplantation loss + reproductive / reproductive performance / …
dog [2] = conditions: Chronic toxicity, beagle, Oral, Feed, dose end: 104 week
rat [3] = conditions: Combined chronic toxicity/carcinogenicity, sprague dawley, Oral, Feed, dose end: 103 week
rat [4] = conditions: Subchronic oral toxicity in rodents, Feed, dose end: 13 week
dog [5] = conditions: Chronic toxicity, beagle, Oral, Capsule, dose end: 52 week, group: systemic
rat [6] = conditions: Subchronic oral toxicity in rodents, fischer, Feed, dose end: 13 week, group: systemic
rat [7] = conditions: Multigenerational reproductive toxicity study, other, Oral, Feed, dose end: 2 generation
mouse [8] = conditions: Carcinogenicity; cd1; Oral; Feed; dose end: 78 week; group: systemic; systemic / in life observation / clinical signs / alopecia + systemic / in life observation / mortality / mortality + systemic / pathology …
rat [9] = conditions: Subchronic oral toxicity in rodents, sprague dawley, Feed, dose end: 13 week, group: systemic
dog [10] = conditions: Chronic toxicity; beagle; Oral; Feed; dose end: 52 week; group: systemic; systemic / hematology / blood clotting / blood clotting - prothrombin time + systemic / hematology / erythrocyte (rbc) count differential / …
rat [11] = conditions: Subchronic inhalation toxicity, wistar, Whole-Body, dose end: 78 day, group: systemic, systemic / organ weight / kidney / nos + systemic / organ weight / liver / nos + systemic / organ weight / ovary / nos + systemic / …
mouse [12] = conditions: Carcinogenicity, cd1, Oral, Feed, dose end: 108 week, group: systemic
mouse [13] = conditions: Subchronic oral toxicity in rodents, cd1, Feed, dose end: 90 day, group: systemic
rat [14] = conditions: Prenatal developmental toxicity study, sprague dawley, Oral, Gavage/Intubation, dose end: 17 GD
rat [15] = conditions: Multigenerational reproductive toxicity study, other, Oral, Feed, dose end: 2 generation; remark: listed apart in the source
rabbit [16] = conditions: Prenatal developmental toxicity study, new zealand white, Oral, Gavage/Intubation, dose end: 28 GD
rat [17] = conditions: Combined chronic toxicity/carcinogenicity; sprague dawley; Oral; Feed; dose end: 104 week; group: systemic; systemic / hematology / blood clotting / blood clotting - thromboplastin time + systemic / hematology / platelet / platelet + systemic / …
rat [18] = conditions: Subchronic oral toxicity in rodents, wistar, Feed, dose end: 90 day, group: systemic
rabbit [19] = conditions: Prenatal developmental toxicity study, new zealand white, Oral, Gavage/Intubation, dose end: 20 GD
rat [20] = conditions: Prenatal developmental toxicity study, wistar, Oral, Gavage/Intubation, dose end: 16 GD
[21] = group: cholinesterase, cholinesterase / cholinesterase / cholinesterase / brain cholinesterase (che) + cholinesterase / cholinesterase / cholinesterase / whole …
[22] = group: systemic, systemic / in life observation / water consumption / water consumption
[23] = group: cholinesterase, cholinesterase / cholinesterase / cholinesterase / brain cholinesterase (che)
[24] = group: cholinesterase, cholinesterase / cholinesterase / cholinesterase / brain cholinesterase (che) + cholinesterase / cholinesterase / cholinesterase / plasma …
[25] = group: systemic, systemic / pathology microscopic / eye / cataract
[26] = group: cholinesterase, cholinesterase / cholinesterase / cholinesterase / whole blood cholinesterase (che) + cholinesterase / cholinesterase / cholinesterase / …
[27] = group: systemic, systemic / in life observation / food consumption / food consumption
[28] = systemic / pathology microscopic / parathyroid gland / cyst + systemic / pathology microscopic / pituitary gland / cyst
[29] = systemic / urinalysis / ph / ph
[30] = group: offspring, systemic / in life observation / body weight / offspring (pup) weight
[31] = group: reproductive, reproductive / offspring survival early / dead fetuses / dead fetuses
[32] = systemic / clinical chemistry / alanine aminotransferase (alt/sgpt) / alanine aminotransferase (alt/sgpt) + systemic / clinical chemistry / …
[33] = systemic / in life observation / body weight / body weight gain + systemic / in life observation / mortality / mortality
[34] = systemic / in life observation / body weight / body weight gain + systemic / in life observation / mortality / mortality + systemic / …
[35] = systemic / hematology / erythrocyte (rbc) count differential / erythrocyte (rbc) + systemic / hematology / hematocrit (hct) / hematocrit (…
[36] = group: developmental, systemic / in life observation / clinical signs / mobility + systemic / in life observation / clinical signs / rearing activity + …
[37] = group: maternal, systemic / in life observation / clinical signs / salivation
[38] = group: offspring, systemic / organ weight / liver / relative to body weight
[39] = group: offspring, systemic / organ weight / liver / relative to body weight + systemic / in life observation / body weight / offspring (pup) weight + systemic…
[40] = group: parental, systemic / organ weight / thyroid gland / absolute
[41] = group: developmental, systemic / in life observation / body weight / fetal weight
[42] = group: maternal, reproductive / reproductive performance / aborted / aborted + reproductive / reproductive performance / postimplantation loss / …
[43] = systemic / organ weight / heart / absolute + systemic / organ weight / heart / relative to body weight + systemic / clinical chemistry / …
[44] = group: developmental, developmental / developmental malformation / bone / delayed ossification + developmental / developmental malformation / bone / short …
[45] = group: maternal, systemic / in life observation / body weight / body weight loss + systemic / in life observation / clinical signs / inappetence + systemic…
[46] = group: developmental, developmental / developmental malformation / bone / delayed ossification + developmental / developmental malformation / bone / unossified + …
[47] = group: maternal, systemic / in life observation / body weight / body weight gain + systemic / in life observation / food consumption / food consumption

CNC(=O)Oc1cccc2c1OC(C)(C)O2 [Bendiocarb]
LEL (rat [1]): 10 mg/kg/day
LOAEL (rat [1]): 10 mg/kg/day
NEL (rat [1]): 2 mg/kg/day
NOAEL (rat [1]): 2 mg/kg/day
LEL (dog [2]; [21]): 15 mg/kg/day
LOAEL (dog [2]; [21]): 15 mg/kg/day
NEL (dog [2]; [21]): 3 mg/kg/day
NOAEL (dog [2]; [21]): 3 mg/kg/day
LEL (dog [2]; [22]): 3 mg/kg/day
LOAEL (dog [2]; [22]): > 15 mg/kg/day
NEL (dog [2]; [22]): 0.7 mg/kg/day
NOAEL (dog [2]; [22]): ≥ 15 mg/kg/day
LEL (rat [3]; [23]): 0.86 mg/kg/day
LOAEL (rat [3]; [23]): 0.86 mg/kg/day
NEL (rat [3]; [24]): 0.42 mg/kg/day
NOAEL (rat [3]; [24]): 0.42 mg/kg/day
LEL (rat [3]; [25]): 0.72 mg/kg/day
LOAEL (rat [3]; [25]): 0.72 mg/kg/day
NEL (rat [3]; [25]): 0.35 mg/kg/day
NOAEL (rat [3]; [25]): 0.35 mg/kg/day
NEL (rat [4]; group: cholinesterase, cholinesterase / cholinesterase / cholinesterase / plasma cholinesterase (che) + cholinesterase / cholinesterase / cholinesterase / whole …): 0.5 mg/kg/day
LEL (rat [4]; group: cholinesterase, cholinesterase / cholinesterase / cholinesterase / whole blood cholinesterase (che)): 2.5 mg/kg/day
LOAEL (rat [4]; [26]): > 12.5 mg/kg/day
NOAEL (rat [4]; [26]): ≥ 12.5 mg/kg/day
LEL (rat [4]; [27]): 12.5 mg/kg/day
LOAEL (rat [4]; [27]): 12.5 mg/kg/day
NEL (rat [4]; [27]): 2.5 mg/kg/day
NOAEL (rat [4]; [27]): 2.5 mg/kg/day

Cc1ccc(-c2c(Cl)nc(C#N)n2S(=O)(=O)N(C)C)cc1 [Cyazofamid]
LOAEL (dog [5]; [28]): 1000 mg/kg/day
NEL (dog [5]; [28]): 40 mg/kg/day
NOAEL (dog [5]; [28]): 200 mg/kg/day
LEL (dog [5]; systemic / pathology microscopic / pituitary gland / cyst): 200 mg/kg/day
LOAEL (rat [6]; systemic / pathology microscopic / kidney / basophilia + systemic / urinalysis / protein / protein): 294 mg/kg/day
NOAEL (rat [6]; systemic / pathology microscopic / kidney / basophilia + systemic / urinalysis / protein / protein + systemic / urinalysis / ph / ph + …): 29.5 mg/kg/day
LEL (rat [6]; [29]): 0.6 mg/kg/day
NEL (rat [6]; [29]): < 0.6 mg/kg/day
LEL (rat [7]; [30]): 1000 mg/kg/day
LOAEL (rat [7]; [30]): > 1000 mg/kg/day
NEL (rat [7]; [30]): 100 mg/kg/day
NOAEL (rat [7]; [30]): ≥ 1000 mg/kg/day
LEL (rat [7]; [31]): 1000 mg/kg/day
LOAEL (rat [7]; [31]): > 1000 mg/kg/day
NEL (rat [7]; [31]): 100 mg/kg/day
NOAEL (rat [7]; [31]): ≥ 1000 mg/kg/day
LEL (mouse [8]): 985 mg/kg/day
LOAEL (mouse [8]): 985 mg/kg/day
NEL (mouse [8]): 94.8 mg/kg/day
NOAEL (mouse [8]): 94.8 mg/kg/day

CCOc1ccc(C(C)(C)COCc2cccc(Oc3ccccc3)c2)cc1 [Etofenprox]
LOAEL (rat [9]; [32]): 120 mg/kg/day
NOAEL (rat [9]; [32]): 20 mg/kg/day
LEL (rat [9]; systemic / clinical chemistry / glucose / glucose): 23 mg/kg/day
NEL (rat [9]; systemic / clinical chemistry / glucose / glucose + systemic / clinical chemistry / alanine aminotransferase (alt/sgpt) / alanine …): 3.8 mg/kg/day
LEL (dog [10]): 339 mg/kg/day
LOAEL (dog [10]): 339 mg/kg/day
NEL (dog [10]): 32.2 mg/kg/day
NOAEL (dog [10]): 32.2 mg/kg/day
LEL (rat [11]): 52.3 mg/kg/day
LOAEL (rat [11]): 52.3 mg/kg/day
NEL (rat [11]): 10.6 mg/kg/day
NOAEL (rat [11]): 10.6 mg/kg/day
LEL (mouse [12]; [33]): 10.4 mg/kg/day
LOAEL (mouse [12]; [33]): 10.4 mg/kg/day
NEL (mouse [12]; [34]): 3.1 mg/kg/day
NOAEL (mouse [12]; [34]): 3.1 mg/kg/day
LOAEL (mouse [13]; [35]): 375 mg/kg/day
NEL (mouse [13]; [35]): 6.1 mg/kg/day
NOAEL (mouse [13]; [35]): 60 mg/kg/day
LEL (mouse [13]; systemic / hematology / mean corpuscular (cell) volume (mcv) / mean corpuscular (cell) volume (mcv) + systemic / hematology / monocytes / …): 60 mg/kg/day
LEL (rat [14]; group: developmental, systemic / in life observation / clinical signs / mobility + systemic / in life observation / clinical signs / rearing activity): 250 mg/kg/day
LOAEL (rat [14]; [36]): 5000 mg/kg/day
NEL (rat [14]; [36]): 12.5 mg/kg/day
NOAEL (rat [14]; [36]): 250 mg/kg/day
LOAEL (rat [14]; group: maternal, systemic / in life observation / clinical signs / anogenital staining + systemic / in life observation / clinical signs / scabbing): 5000 mg/kg/day
LEL (rat [14]; [37]): 12.5 mg/kg/day
NEL (rat [14]; [37]): < 12.5 mg/kg/day
NOAEL (rat [14]; group: maternal, systemic / in life observation / clinical signs / salivation + systemic / in life observation / clinical signs / anogenital staining + …): 250 mg/kg/day
LEL (rat [15]; [38]): 35 mg/kg/day
LOAEL (rat [15]; [38]): 35 mg/kg/day
NEL (rat [15]; [39]): 5 mg/kg/day
NOAEL (rat [15]; [39]): 5 mg/kg/day
LOAEL (rat [15]; group: parental, systemic / organ weight / liver / relative to body weight): 35 mg/kg/day
NOAEL (rat [15]; group: parental, systemic / organ weight / liver / relative to body weight + systemic / in life observation / clinical signs / discharge on cageboard + …): 5 mg/kg/day
LEL (rat [15]; [40]): 5 mg/kg/day
NEL (rat [15]; [40]): < 5 mg/kg/day
LEL (rabbit [16]; [41]): 300 mg/kg/day
LOAEL (rabbit [16]; [41]): 300 mg/kg/day
NEL (rabbit [16]; [41]): 100 mg/kg/day
NOAEL (rabbit [16]; [41]): 100 mg/kg/day
LEL (rabbit [16]; [42]): 300 mg/kg/day
LOAEL (rabbit [16]; [42]): 300 mg/kg/day
NEL (rabbit [16]; [42]): 100 mg/kg/day
NOAEL (rabbit [16]; [42]): 100 mg/kg/day
LEL (rat [17]): 1.1 mg/kg/day
LOAEL (rat [17]): 25.5 mg/kg/day
NEL (rat [17]): < 1.1 mg/kg/day
NOAEL (rat [17]): 3.7 mg/kg/day

CCCCOC(=O)[C@@H](C)Oc1ccc(Oc2ccc(C(F)(F)F)cn2)cc1 [Fluazifop-P-butyl]
LEL (rat [18]; [43]): 0.5 mg/kg/day
NEL (rat [18]; [43]): < 0.5 mg/kg/day
LOAEL (rat [18]; systemic / organ weight / spleen / absolute + systemic / organ weight / spleen / relative to body weight + systemic / hematology / …): 5 mg/kg/day
NOAEL (rat [18]; systemic / organ weight / spleen / absolute + systemic / organ weight / spleen / relative to body weight + systemic / organ weight / brain…): 0.5 mg/kg/day
LEL (rabbit [19]; [44]): 50 mg/kg/day
LOAEL (rabbit [19]; [44]): 50 mg/kg/day
NEL (rabbit [19]; [44]): 10 mg/kg/day
NOAEL (rabbit [19]; [44]): 10 mg/kg/day
LEL (rabbit [19]; [45]): 50 mg/kg/day
LOAEL (rabbit [19]; [45]): 50 mg/kg/day
NEL (rabbit [19]; [45]): 10 mg/kg/day
NOAEL (rabbit [19]; [45]): 10 mg/kg/day
LEL (rat [20]; [46]): 20 mg/kg/day
LOAEL (rat [20]; [46]): 20 mg/kg/day
NEL (rat [20]; [46]): 1 mg/kg/day
NOAEL (rat [20]; [46]): 1 mg/kg/day
LOAEL (rat [20]; group: maternal, systemic / in life observation / body weight / body weight gain): 300 mg/kg/day
LEL (rat [20]; [47]): 300 mg/kg/day
NEL (rat [20]; [47]): 20 mg/kg/day
NOAEL (rat [20]; [47]): 20 mg/kg/day
